Test results as given in US10323254B2, “Method for regulating plant growth” (RIKEN, priority 2015, dated 2019).

How the values were obtained:
Assay type in all cases: in vivo, Arabidopsis thaliana
[1] = system: BR-responsive genes (TCH4, BAS1, IAA19, and SAUR-AC1); test: qRT-PCR of BR-responsive gene expression in seedlings; settings: wild-type (WT) plants; 7-day-old dark-germinated seedlings; 3 μM Brz or 100 nM BL for 3 hours
Experimental: The expression level of TCH, BAS1, IAA19, and SAUR-AC1 were analyzed by qRT-PCR in 7-day-old dark-germinated seedlings and treated with medium containing DMSO (Mock), 3 μM Brz (+Brz), or 100 nM BL (+BL) for 3 hours. The data represent the mean±s.d. of 4 independent experiments (**P<0.01, Student's t-test). […] Ten-day-old seedlings grown on medium with Brz were treated with 100 nM BL or mock solution for 3 hours. Total proteins were extracted and analyzed by immunoblotting with an anti-BIL1 antibody. […] The signal intensities of phosphorylated BIL1 (above) and dephosphorylated BIL1 (below) are shown by arrowhead, and each band signal is counted as a percentage relative to the level of phosphorylated BIL1 in WT seedlings.
Total RNA was extracted from plants using an RNeasy Plant Mini Kit (QIAGEN).
The first-strand cDNA was synthesized using PrimeScript (Takara) and was used in qRT-PCR. The qRT-PCR was performed according to the instructions provided for the Thermal Cycler Dice (Takara) using the SYBR Premix ExTaq system (Takara). […]

[2] = system: BSS1; test: qRT-PCR of BSS1 expression in wild-type seedlings; settings: WT seedlings on medium with different concentrations of Brz or BL, 7 days; dose-dependent
Experimental: The data represent the mean±s.d. from 4 independent experiments. […] The samples were grown in the same conditions as FIG. 4A for 3 days (scale bar: 5 mm). FIGS. 4C to 4E show the results of determining the BSS1 expression level by qRT-PCR. Wild-type (WT) seedlings grown on medium with different concentrations of Brz (FIG. 4C) and BL (FIG. 4D) in the light for 7 days and dark-grown seedlings exposed to light for 0-7 days (Figure E) were used for analysis of the BSS1 expression level. The data represent the mean±s.d. of 4 independent experiments.
Approximately 10,000 RIKEN GSC Arabidopsis activation-tagging lines (Nakazawa et al., 2003, Activation tagging, a novel tool to dissect the functions of a gene family. Plant J. 34: 741-750) were screened on ½ MS medium containing 3 μM Brz (Asami et al., 2000, Characterization of brassinazole, a triazole-type brassinosteroid biosynthesis inhibitor, Plant Physiol. 123: 93-100). After growth for 7 days in the dark, seedlings with shorter hypocotyls than those of the controls were identified and transferred to soil. […] First-strand cDNA was synthesized with PrimeScript (Takara) and used in quantitative real-time PCR (qRT-PCR). […]

[3] = system: BSS1-GFP; test: Fluorescence microscopy of punctate BSS1-GFP in transgenic seedlings; settings: for number of intense puncta per cell: 7-day-old BSS1-GFP seedlings treated 3 hours with 3 μM Brz or 100 μM BL; for single fluorescence intensity of each punctum: Brz versus BL treatment conditions, 3 hours; for onset of responsiveness of punctate BSS1-GFP: time after treatment, roots and hypocotyls
Experimental: FIGS. 5C to 5E show analysis of BSS1-GFP puncta signal intensities upon treatment with Brz and BL. Seven-day-old BSS1-GFP transgenic seedlings were treated for 3 hours with 3 μM Brz (Brz), an equal volume of DMSO (Mock), or 100 μM BL (BL). […] The results are represented as the mean±s.d. The signal intensity was measured using ImageJ software. […]
The plants that were transformed with the CaMV35S-BSS1-GFP construct BSS1(-GFP)-OX and the CaMV35S-BIL1-GFP construct BIL1-GFP-OX were observed via confocal laser scanning microscopy with a BX60 fluorescence microscope (Olympus) equipped with a Model CSU10 confocal scanner (Yokogawa Electric) and LSM700 (Zeiss).
FM4-64 (Molecular Probes) dissolved in water was applied to Arabidopsis plants at a final concentration of 4 μM for 3 minutes. The plants were washed with water to remove the excessive amount of the stain and observed. A DMSO-base stock solution of Brefeldin A (BFA) (Sigma) was applied to the cells at a final concentration of 50 μM for 1 hour.
The images were analyzed using ImageJ software. To measure the ratio of the nuclear and cytosolic signals of BIL1-GFP for each cell, the signal intensities in the nucleus and cytosol were calculated from the mean of the intensity in each area. The nuclear to cytosolic signal ratio was then calculated for each cell. The average nuclear/cytosolic signal ratio and standard error were calculated from measurements of at least 54 cells from each line (FIG. 9B). Line scan measurements from the vacuole to the nucleus through the cytosol were performed, and representative plot profiles of sample measurements are presented in FIG. 5C.

[4] = system: BSS1-GFP; test: as above; settings: versus control conditions; for number of punctate BSS1-GFP: seedlings grown on medium with 3 μM Brz or 100 nM BL

CC(C)[C@H](C)[C@@H](O)[C@H](O)[C@@H](C)[C@H]1CC[C@H]2[C@@H]3COC(=O)[C@H]4C[C@H](O)[C@H](O)C[C@]4(C)[C@H]3CC[C@]12C [BL, brassinolide]
expression of TCH4, BAS1, IAA19, and SAUR-AC1 [1]: increased | BSS1 expression [2]: decreased | number of intense puncta per cell ([3]; versus mock): decreased | single fluorescence intensity of each punctum [3]: not different | onset of responsiveness of punctate BSS1-GFP [3]: 15 min | number of punctate BSS1-GFP [4]: decreased in number

CC(O)(c1ccccc1)C(Cc1ccc(Cl)cc1)n1cncn1 (stereo not drawn) [Brz, brassinazole]
expression of TCH4, BAS1, IAA19, and SAUR-AC1 [1]: suppressed | BSS1 expression [2]: increased | fluorescence intensity of the puncta per cell with respect to the whole-cell fluorescence intensity ([3]; 7-day-old BSS1-GFP seedlings treated 3 hours with 3 μM Brz): increase | number of intense puncta per cell ([3]; versus mock): increased | cytosolic fluorescence signal ([3]; 7-day-old BSS1-GFP seedlings treated 3 hours with 3 μM Brz, versus mock): decreased | single fluorescence intensity of each punctum [3]: not different | onset of responsiveness of punctate BSS1-GFP [3]: 15 min | diffused BSS1-GFP signal in the cytosol ([4]; seedlings grown on medium containing Brz): reduced | number of punctate BSS1-GFP [4]: increased in number
